target: T1, hCRTH2 receptor (Homo sapiens, UniProt Q9Y5Y4); assay: Radioligand displacement assay (3H-PGD2) on hCRTH2 receptor membranes; type: binding; settings: antagonistic activity, 3H-PGD2 radioligand displacement, HEK293-hCRTH2 membranes
T1 construct: expressed in transfected cells; host or cells: HEK293
T1 sequence (Q9Y5Y4 1-395): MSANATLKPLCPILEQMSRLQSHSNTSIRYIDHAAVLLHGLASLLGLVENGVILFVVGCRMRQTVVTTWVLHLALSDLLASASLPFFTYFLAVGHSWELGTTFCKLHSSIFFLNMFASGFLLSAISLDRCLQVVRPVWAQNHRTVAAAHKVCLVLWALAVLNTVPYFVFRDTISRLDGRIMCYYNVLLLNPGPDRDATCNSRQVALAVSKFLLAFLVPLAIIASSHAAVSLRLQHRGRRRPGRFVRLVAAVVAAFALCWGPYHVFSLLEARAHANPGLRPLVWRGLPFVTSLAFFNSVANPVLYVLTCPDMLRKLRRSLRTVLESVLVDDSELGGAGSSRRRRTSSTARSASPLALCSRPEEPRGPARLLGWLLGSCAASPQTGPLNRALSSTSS

IC50	SMILES
0.86 nM	O=C(O)COc1ccc(Cl)cc1[C@@H]1c2ccccc2CCN1C(=O)OCc1cncnc1 [Example 284, (S)-1-(2-Carboxymethoxy-5-chloro-phenyl)-3,4-dihydro-1H-isoquinoline-2-carboxylic acid pyrimidin-5-ylmethyl ester]
3.17 nM	O=C(O)COc1ccc(Cl)cc1[C@@H]1c2ccccc2CCN1C(=O)OCCc1ccccc1 [Example 285, (S)-1-(2-Carboxymethoxy-5-chloro-phenyl)-3,4-dihydro-1H-isoquinoline-2-carboxylic acid phenethyl ester]
2.67 nM	O=C(O)COc1ccc(Cl)cc1[C@@H]1c2ccccc2CCN1C(=O)OCCc1cccc(F)c1 [Example 286, (S)-1-(2-Carboxymethoxy-5-chloro-phenyl)-3,4-dihydro-1H-isoquinoline-2-carboxylic acid 2-(3-fluoro-phenyl)-ethyl ester]
0.2 nM	Cn1nccc1COC(=O)N1CCc2ccccc2[C@H]1c1cc(Cl)ccc1OCC(=O)O [Example 287, (S)-1-(2-Carboxymethoxy-5-chloro-phenyl)-3,4-dihydro-1H-isoquinoline-2-carboxylic acid 2-methyl-2H-pyrazol-3-ylmethyl ester]
0.41 nM	Cc1cc(COC(=O)N2CCc3ccccc3[C@H]2c2cc(Cl)ccc2OCC(=O)O)n(C)n1 [Example 288, (S)-1-(2-Carboxymethoxy-5-chloro-phenyl)-3,4-dihydro-1H-isoquinoline-2-carboxylic acid 2,5-dimethyl-2H-pyrazol-3-ylmethyl ester]
2.94 nM	CCn1nc(C)cc1CCOC(=O)N1CCc2ccccc2[C@H]1c1cc(Cl)ccc1OCC(=O)O [Example 289, (S)-1-(2-Carboxymethoxy-5-chloro-phenyl)-3,4-dihydro-1H-isoquinoline-2-carboxylic acid 2-(2-ethyl-5-methyl-2H-pyrazol-3-yl)-ethyl ester]
0.48 nM	Cn1cncc1COC(=O)N1CCc2ccccc2[C@H]1c1cc(Cl)ccc1OCC(=O)O [Example 290, (S)-1-(2-Carboxymethoxy-5-chloro-phenyl)-3,4-dihydro-1H-isoquinoline-2-carboxylic acid 3-methyl-3H-imidazol-4-ylmethyl ester]
8.92 nM	Cc1cc(C)n(CCOC(=O)N2CCc3ccccc3[C@H]2c2cc(Cl)ccc2OCC(=O)O)n1 [Example 291, (S)-1-(2-Carboxymethoxy-5-chloro-phenyl)-3,4-dihydro-1H-isoquinoline-2-carboxylic acid 2-(3,5-dimethyl-pyrazol-1-yl)-ethyl ester]
2.08 nM	Cc1cnn(COC(=O)N2CCc3ccccc3[C@H]2c2cc(Cl)ccc2OCC(=O)O)c1 [Example 292, (S)-1-(2-Carboxymethoxy-5-chloro-phenyl)-3,4-dihydro-1H-isoquinoline-2-carboxylic acid 4-methyl-pyrazol-1-ylmethyl ester]
98.1 nM	Cc1nc2ccccc2n1CCOC(=O)N1CCc2ccccc2[C@H]1c1cc(Cl)ccc1OCC(=O)O [Example 293]
1.94 nM	O=C(O)COc1ccc(Cl)cc1[C@@H]1c2ccccc2CCN1C(=O)OCc1nc2ccccc2s1 [Example 294, (S)-1-(2-Carboxymethoxy-5-chloro-phenyl)-3,4-dihydro-1H-isoquinoline-2-carboxylic acid benzothiazol-2-ylmethyl ester]
7.41 nM	O=C(O)COc1ccc(Cl)cc1[C@@H]1c2ccccc2CCN1C(=O)OCc1nc2ccccc2o1 [Example 295, (S)-1-(2-Carboxymethoxy-5-chloro-phenyl)-3,4-dihydro-1H-isoquinoline-2-carboxylic acid benzooxazol-2-ylmethyl ester]
1.72 nM	Cn1nc(COC(=O)N2CCc3ccccc3[C@H]2c2cc(Cl)ccc2OCC(=O)O)c2ccccc21 [Example 296, (S)-1-(2-Carboxymethoxy-5-chloro-phenyl)-3,4-dihydro-1H-isoquinoline-2-carboxylic acid 1-methyl-1H-indazol-3-ylmethyl ester]
1.06 nM	O=C(O)COc1ccc(Cl)cc1[C@@H]1c2ccccc2CCN1C(=O)OCn1ncc2ccccc21 [Example 297, (S)-1-(2-Carboxymethoxy-5-chloro-phenyl)-3,4-dihydro-1H-isoquinoline-2-carboxylic acid indazol-1-ylmethyl ester]
2.49 nM	O=C(O)COc1ccc(Cl)cc1[C@@H]1c2ccccc2CCN1C(=O)OCc1noc2ccccc12 [Example 298, (S)-1-(2-Carboxymethoxy-5-chloro-phenyl)-3,4-dihydro-1H-isoquinoline-2-carboxylic acid benzo[d]isoxazol-3-ylmethyl ester]
6.83 nM	O=C(O)COc1ccc(Cl)cc1[C@@H]1c2ccc(F)c(F)c2CCN1C(=O)OCc1nccs1 [Example 299, (S)-1-(2-Carboxymethoxy-5-chloro-phenyl)-5,6-difluoro-3,4-dihydro-1H-isoquinoline-2-carboxylic acid thiazol-2-ylmethyl ester]
6.39 nM	Cc1ncsc1CCOC(=O)N1CCc2c(ccc(F)c2F)[C@H]1c1cc(Cl)ccc1OCC(=O)O [Example 300, (S)-1-(2-Carboxymethoxy-5-chloro-phenyl)-5,6-difluoro-3,4-dihydro-1H-isoquinoline-2-carboxylic acid 2-(4-methyl-thiazol-5-yl)-ethyl ester]

same assay, conditions: antagonistic activity; 3H-PGD2 displacement on HEK293-hCRTH2 membrane fragments

IC50	SMILES
2.65 nM	O=C(O)COc1ccc(Cl)cc1C1c2ccccc2CN1C(=O)OCc1ccccc1 (stereo not shown) [Example 231, 1-(2-Carboxymethoxy-5-chloro-phenyl)-1,3-dihydro-isoindole-2-carboxylic acid benzyl ester]
1.39 nM	O=C(O)COc1ccc(Cl)cc1[C@@H]1c2ccccc2CCN1C(=O)[C@@H]1C[C@H]1c1ccccc1 [Example 232, {4-Chloro-2-[(S)-2-((1R,2R)-2-phenyl-cyclopropanecarbonyl)-1,2,3,4-tetrahydro-isoquinolin-1-yl]-phenoxy}-acetic acid]
97.1 nM	C[C@H](OC(=O)N1CCc2ccccc2[C@H]1c1cc(Cl)ccc1OCC(=O)O)c1ccccc1 [Example 261]
2.04 nM	O=C(O)COc1ccc(Cl)cc1[C@@H]1c2ccccc2CCN1C(=O)OCc1nccs1 [Example 273, (S)-1-(2-Carboxymethoxy-5-chloro-phenyl)-3,4-dihydro-1H-isoquinoline-2-carboxylic acid thiazol-2-ylmethyl ester]
2.42 nM	Cc1ncsc1CCOC(=O)N1CCc2ccccc2[C@H]1c1cc(Cl)ccc1OCC(=O)O [Example 274, (S)-1-(2-Carboxymethoxy-5-chloro-phenyl)-3,4-dihydro-1H-isoquinoline-2-carboxylic acid 2-(4-methyl-thiazol-5-yl)-ethyl ester]
5.01 nM	Cc1cnc(COC(=O)N2CCc3ccccc3[C@H]2c2cc(Cl)ccc2OCC(=O)O)s1 [Example 275, (S)-1-(2-Carboxymethoxy-5-chloro-phenyl)-3,4-dihydro-1H-isoquinoline-2-carboxylic acid 5-methyl-thiazol-2-ylmethyl ester]
1.82 nM	Cc1csc(COC(=O)N2CCc3ccccc3[C@H]2c2cc(Cl)ccc2OCC(=O)O)n1 [Example 276, (S)-1-(2-Carboxymethoxy-5-chloro-phenyl)-3,4-dihydro-1H-isoquinoline-2-carboxylic acid 4-methyl-thiazol-2-ylmethyl ester]
0.77 nM	Cc1ncc(COC(=O)N2CCc3ccccc3[C@H]2c2cc(Cl)ccc2OCC(=O)O)s1 [Example 277, (S)-1-(2-Carboxymethoxy-5-chloro-phenyl)-3,4-dihydro-1H-isoquinoline-2-carboxylic acid 2-methyl-thiazol-5-ylmethyl ester]
1.28 nM	Cc1nc(COC(=O)N2CCc3ccccc3[C@H]2c2cc(Cl)ccc2OCC(=O)O)cs1 [Example 278, (S)-1-(2-Carboxymethoxy-5-chloro-phenyl)-3,4-dihydro-1H-isoquinoline-2-carboxylic acid 2-methyl-thiazol-4-ylmethyl ester]
0.87 nM	Cc1cc(COC(=O)N2CCc3ccccc3[C@H]2c2cc(Cl)ccc2OCC(=O)O)on1 [Example 279, (S)-1-(2-Carboxymethoxy-5-chloro-phenyl)-3,4-dihydro-1H-isoquinoline-2-carboxylic acid 3-methyl-isoxazol-5-ylmethyl ester]
0.35 nM	Cc1conc1COC(=O)N1CCc2ccccc2[C@H]1c1cc(Cl)ccc1OCC(=O)O [Example 280, (S)-1-(2-Carboxymethoxy-5-chloro-phenyl)-3,4-dihydro-1H-isoquinoline-2-carboxylic acid 4-methyl-isoxazol-3-ylmethyl ester]
4.8 nM	Cc1noc(C)c1COC(=O)N1CCc2ccccc2[C@H]1c1cc(Cl)ccc1OCC(=O)O [Example 281, (S)-1-(2-Carboxymethoxy-5-chloro-phenyl)-3,4-dihydro-1H-isoquinoline-2-carboxylic acid 3,5-dimethyl-isoxazol-4-ylmethyl ester]
3.96 nM	O=C(O)COc1ccc(Cl)cc1[C@@H]1c2ccccc2CCN1C(=O)OCc1cnccn1 [Example 282, (S)-1-(2-Carboxymethoxy-5-chloro-phenyl)-3,4-dihydro-1H-isoquinoline-2-carboxylic acid pyrazin-2-ylmethyl ester]
7.56 nM	O=C(O)COc1ccc(Cl)cc1[C@@H]1c2ccccc2CCN1C(=O)OCc1ccncn1 [Example 283, (S)-1-(2-Carboxymethoxy-5-chloro-phenyl)-3,4-dihydro-1H-isoquinoline-2-carboxylic acid pyrimidin-4-ylmethyl ester]

Source: US8575158B2, “1-phenyl-substituted heterocyclyl derivatives and their use as prostaglandin D2 receptor modulators” (Actelion Pharmaceuticals Ltd., priority 2010, dated 2013)
